This is an account of results in patent US12715896B2 (priority 2020, dated 2026).

The term IC50 denotes the point on the concentration scale where inhibition reaches its midpoint. For orientation: inhibition means how much of the control response was suppressed.

Structures are written as SMILES. Non-standard residues stand in square brackets, D forms with d. Residues, ends and D or L forms follow the SMILES beside them. *: point of attachment. Met(O2) = CS(=O)(=O)CC[C@H](N)C(=O)O; Cha = N[C@@H](CC1CCCCC1)C(=O)O; Tle = CC(C)(C)[C@H](N)C(=O)O; Nva = CCC[C@H](N)C(=O)O; Cbz = O=C(OCc1ccccc1)*; Boc = CC(C)(C)OC(=O)*

Assay [1] concerns the target T1, SARS-CoV-2 M^pro (Severe acute respiratory syndrome coronavirus 2, UniProt P0DTD1). The assay is classed as binding. To be noted: 30 μM compound; for 2019-nCoV 3CL TSA Tm: melting temperature with compound, DMSO 55.74; for 2019-nCoV 3CL TSA ΔTm: shift vs DMSO.
Assay [2] deals with T1, SARS-CoV-2 M^pro. The assay can be described thus: FRET-based enzymatic assay for SARS-CoV-2 main protease. Conditions: for inhibition at 20 µM: read-out: inhibition against M^pro in primary screening. The assay is classed as biochemical.

Regarding `CCCC[C@@H](C=O)NC(=O)[C@H](CC(C)C)NC(=O)OCc1ccccc1` [Calpeptin (56), Calpeptin], at SARS-CoV-2 M^pro [1], the “2019-nCoV 3CL TSA Tm” value was 56.84 ± 0.00 °C and the “2019-nCoV 3CL TSA ΔTm” value was 1.1 °C.
As to `CCC[C@H](NC(=O)[C@H](CC(C)C)NC(=O)[C@H](CC(C)C)NC(=O)OCc1ccccc1)C(=O)C(=O)NC1CC1` [Jun8-18-4], inhibition on SARS-CoV-2 M^pro [2] was half-maximal at 340 nM (IC50).
For `CCC[C@H](NC(=O)[C@H](CC(C)C)NC(=O)[C@@H](NC(=O)OCc1ccccc1)C(C)C)C(=O)C(=O)NC1CC1` [Jun8-29-2], inhibition against SARS-CoV-2 M^pro [2] was half-maximal at 480 nM (IC50).
The same measure, in the same setting: to `CSCC[C@@H](C=O)NC(=O)[C@H](CC(C)C)NC(=O)[C@H](Cc1ccccc1)NC(C)=O` [Jun9-2-5] (Ac-Phe-Leu-Met-aldehyde) belongs 270 nM; to `CC(=O)N[C@@H](Cc1ccccc1)C(=O)N[C@@H](CC(C)C)C(=O)N[C@@H](CC[S+](C)[O-])C(=O)C(=O)NC1CC1` (stereo partly drawn) [Jun9-24-4], 290 nM.
On the same count and under the same terms, to `CCC[C@H](NC(C)=O)C(=O)N[C@@H](CC(C)C)C(=O)N[C@@H](CCSC)C(=O)C(=O)NC1CC1` [Jun9-24-5] belongs 640 nM; to `CCC[C@H](NC(=O)[C@H](CC(C)C)NC(=O)[C@H](CC(C)C)NC(C)=O)C(=O)C(=O)NC1CC1` [Jun9-49-1], 5890 nM; to `CC(C)C[C@H](NC(=O)CNC(=O)OCc1ccccc1)C(=O)N[C@@H](CC[S+](C)[O-])C(=O)C(=O)NC1CC1` (stereo partly drawn) [Jun9-24-1], 510 nM.
The same measure, in the same setting: to `CSCC[C@H](NC(=O)[C@H](CC(C)C)NC(=O)[C@H](CC(C)C)NC(C)=O)C(=O)C(=O)NCc1ccccc1` [Jun9-11-5] belongs 1770 nM.
Consider `COc1ccc2c(O[C@@H]3CC4C(=O)N[C@]5(C(=O)NS(=O)(=O)C6CC6)C[C@@H]5/C=C\CCCCN(C)C(=O)C4C3)cc(-c3nc(C(C)C)cs3)nc2c1C` (stereo partly drawn) [Simeprevir (24), Simeprevir], for which, at SARS-CoV-2 M^pro [2], the inhibition at 20 µM was more than 60%.
As to `CC(=O)N[C@@H](CC(C)C)C(=O)N[C@@H](CC(C)C)C(=O)N[C@@H](CCS(C)(=O)=O)C(=O)C(=O)NC1CC1` [Jun9-65-1], half-maximal inhibition on SARS-CoV-2 M^pro [2] (IC50) required 180 nM.
`CC(C)C[C@H](NC(=O)CNC(=O)OCc1ccccc1)C(=O)N[C@@H](CCS(C)(=O)=O)C(=O)C(=O)NC1CC1` [Jun9-56-2] yielded an IC50 at SARS-CoV-2 M^pro [2] of 130 nM.
Consider `CSCC[C@H](NC(=O)[C@H](CC(C)C)NC(=O)CNC(=O)OCc1ccccc1)C(=O)C(=O)NC1CC1` [Jun9-47-4], for which half-maximal inhibition against SARS-CoV-2 M^pro [2] (IC50) required 1200 nM.
In the case of `CSCC[C@H](NC(=O)[C@H](CC1CCCCC1)NC(=O)[C@@H](NC(C)=O)C(C)(C)C)C(=O)C(=O)NC1CC1` [Jun9-66-3], the IC50 at SARS-CoV-2 M^pro [2] was determined as 1520 nM.
In the case of `CC(C)C[C@@H](C=O)NC(=O)[C@@H](NS(=O)(=O)c1ccc(F)cc1)C(C)C` [Calpain inhibitor VI (58), Calpain inhibitor VI], at SARS-CoV-2 M^pro [1], the “2019-nCoV 3CL TSA Tm” value came to 55.46 ± 0.14 °C and the “2019-nCoV 3CL TSA ΔTm” value is −0.28 °C.
In turn, `CSCC[C@H](NC(=O)[C@H](CC(C)C)NC(=O)[C@H](CC(C)C)NC(C)=O)C(=O)C(=O)NC1CC1` [Jun9-11-3] displayed an IC50 against SARS-CoV-2 M^pro [2] of 540 nM.
Still for that read-out and setting: the same measure for `CC(=O)N[C@@H](CC(C)C)C(=O)N[C@@H](CC(C)C)C(=O)N[C@@H](CC[S+](C)[O-])C(=O)C(=O)NC1CC1` (stereo partly drawn) [Jun9-59-2]: 360 nM; for `CSCC[C@@H](C=O)NC(=O)[C@H](CC(C)C)NC(=O)[C@H](CC(C)C)NC(=O)OC(C)(C)C` [Jun9-2-4] (Boc-Leu-Leu-Met-aldehyde): 390 nM.
Consider `CSCC[C@@H](C=O)NC(=O)[C@H](CC(C)C)NC(=O)[C@H](CC(C)C)NC(C)=O` [Calpain inhibitor II (61), Calpain inhibitor II] (Ac-Leu-Leu-Met-aldehyde), for which, on SARS-CoV-2 M^pro [1], the “2019-nCoV 3CL TSA Tm” value turned out to be 62.93 ± 0.14 °C and the “2019-nCoV 3CL TSA ΔTm” value was 6.65 °C.
On SARS-CoV-2 M^pro [2], `CC(=O)N[C@@H](CC1CCCCC1)C(=O)N[C@@H](CC(C)C)C(=O)N[C@@H](CCS(C)(=O)=O)C(=O)C(=O)NC1CC1` [Jun9-82-2] had an IC50 of 100 nM.
Same read-out and setting: to `CSCC[C@@H](C=O)NC(=O)[C@H](CC(C)C)NC(C)=O` [Jun8-102-1] (Ac-Leu-Met-aldehyde) belongs 4770 nM; to `CSCC[C@@H](C=O)NC(=O)[C@H](CC(C)C)NC(=O)[C@H](CC(C)C)NC(=O)OCc1ccccc1` [Jun8-61-4] (Cbz-Leu-Leu-Met-aldehyde), 110 nM.
As to `CCCC[C@H](NC(=O)[C@@H]1[C@@H]2[C@H](CN1C(=O)[C@@H](NC(=O)NC1(CS(=O)(=O)C(C)(C)C)CCCCC1)C(C)(C)C)C2(C)C)C(=O)C(=O)NC1CC1` [Narlaprevir (29), Narlaprevir], on SARS-CoV-2 M^pro [2], the inhibition at 20 µM is more than 60%. The “2019-nCoV 3CL TSA Tm” value at SARS-CoV-2 M^pro [1] was 60.92 ± 0.14/5.18 °C.
On SARS-CoV-2 M^pro [2], `CSCC[C@H](NC(=O)[C@H](CC(C)C)NC(=O)[C@H](CC(C)C)NC(=O)OCc1ccccc1)C(=O)C(=O)NC1CC1` [Jun8-43-3] returned a concentration for half-maximal inhibition (IC50) of 2800 nM.
Still for that read-out and setting: the same measure for `CSCC[C@@H](C=O)NC(=O)[C@H](CC(C)C)NC(=O)OC(C)(C)C` [Jun9-2-3] (Boc-Leu-Met-aldehyde): more than 20000 nM.
On to `CC(C)(C)NC(=O)N[C@H](C(=O)N1C[C@H]2[C@@H]([C@H]1C(=O)NC(CC1CCC1)C(=O)C(N)=O)C2(C)C)C(C)(C)C` (stereo partly drawn) [Boceprevir (28), Boceprevir], for which the inhibition at 20 µM on SARS-CoV-2 M^pro [2] was more than 60%. The “2019-nCoV 3CL TSA Tm” value at SARS-CoV-2 M^pro [1] was 62.41 ± 0.21/6.67 °C.
Regarding `CSCC[C@@H](C=O)NC(=O)[C@H](CC(C)C)NC(=O)[C@H](CC1CCCCC1)NC(C)=O` [Jun9-66-2] (Ac-[Cha]-Leu-Met-aldehyde), the IC50 against SARS-CoV-2 M^pro [2] was 290 nM.
On the same count and under the same terms, to `CCC[C@@H](C=O)NC(=O)[C@H](CC(C)C)NC(=O)CNC(=O)OCc1ccccc1` [Jun9-52-3] (Cbz-Gly-Leu-[Nva]-aldehyde) belongs more than 20000 nM.
Take `CC(C)C[C@@H](C=O)NC(=O)[C@H](CC(C)C)NC(=O)[C@H](CC(C)C)NC(=O)OCc1ccccc1` [MG-132 (43), MG-132] (Cbz-Leu-Leu-Leu-aldehyde): the inhibition at 20 µM on SARS-CoV-2 M^pro [2] is more than 60%.
With `CCC[C@H](NC(=O)[C@H](CC(C)C)NC(=O)OCc1ccccc1)C(=O)C(=O)NC1CC1` [Jun8-18-2], the 50% inhibitory concentration (IC50) at SARS-CoV-2 M^pro [2] is more than 20000 nM.
For `CCC[C@@H](C=O)NC(=O)[C@H](CC(C)C)NC(=O)[C@H](CC(C)C)NC(=O)OCc1ccccc1` [MG-115 (60), MG-115] (Cbz-Leu-Leu-[Nva]-aldehyde), at SARS-CoV-2 M^pro [1], the “2019-nCoV 3CL TSA Tm” value is 60.51 ± 0.28 °C and the “2019-nCoV 3CL TSA ΔTm” value came to 4.77 °C.
Turning to `CC(=O)N[C@@H](CC1CCCCC1)C(=O)N[C@@H](CC(C)C)C(=O)N[C@@H](CC[S+](C)[O-])C(=O)C(=O)NC1CC1` (stereo partly drawn) [Jun9-87-4], at SARS-CoV-2 M^pro [2], the IC50 came out at 270 nM.
Still for that read-out and setting: to `CCC[C@H](NC(=O)[C@H](CC(C)C)NC(=O)CNC(=O)OCc1ccccc1)C(=O)C(=O)NC1CC1` [Jun9-52-4] belongs 17700 nM.
On the same count and under the same terms, the same measure for `CCC[C@H](NC(=O)[C@H](CC(C)C)NC(=O)[C@H](Cc1ccccc1)NC(=O)OCc1ccccc1)C(=O)C(=O)NC1CC1` [Jun8-29-4]: 480 nM; for `CCC[C@@H](C=O)NC(=O)[C@H](CC(C)C)NC(=O)[C@H](CC(C)C)NC(C)=O` [Jun9-48-3] (Ac-Leu-Leu-[Nva]-aldehyde): 38500 nM.
The same measure, in the same setting: the same measure for `CC(=O)N[C@@H](Cc1ccccc1)C(=O)N[C@@H](CC(C)C)C(=O)N[C@@H](CCS(C)(=O)=O)C(=O)C(=O)NC1CC1` [Jun9-56-3]: 140 nM.
The molecule `CC(C)[C@H](NC(=O)OCc1ccccc1)C(=O)N[C@H](C=O)Cc1ccccc1` [calpain inhibitor III (MDL28170) (57), calpain inhibitor III] (Cbz-Val-Phe-aldehyde) returned an IC50 against SARS-CoV-2 M^pro [2] of more than 20000 nM. On SARS-CoV-2 M^pro [1], the “2019-nCoV 3CL TSA Tm” value was 55.36 ± 0.14 °C and the “2019-nCoV 3CL TSA ΔTm” value was −0.38 °C.
Molecule `CSCC[C@@H](C=O)NC(=O)[C@H](CC1CCCCC1)NC(=O)[C@@H](NC(C)=O)C(C)(C)C` [Jun9-66-1] (Ac-[Tle]-[Cha]-Met-aldehyde) registered an IC50 against SARS-CoV-2 M^pro [2] of 320 nM.
`CSCC[C@@H](C=O)NC(=O)[C@H](CC(C)C)NC(=O)OCc1ccccc1` [Jun8-102-2] (Cbz-Leu-Met-aldehyde) displayed an IC50 on SARS-CoV-2 M^pro [2] of 910 nM.
`CSCC[C@H](NC(=O)[C@H](CC(C)C)NC(=O)[C@H](CC1CCCCC1)NC(C)=O)C(=O)C(=O)NC1CC1` [Jun9-66-4]: the IC50 at SARS-CoV-2 M^pro [2] came out at 220 nM.
On the same count and under the same terms, the same measure for `CSCC[C@H](NC(=O)[C@H](CC(C)C)NC(=O)[C@H](CC(C)C)NC(C)=O)C(=O)C(=O)NC(C)C` [Jun9-11-4]: 5990 nM; for `CC(=O)N[C@@H](CC(C)C)C(=O)N[C@@H](CC(C)C)C(=O)N[C@H](C=O)CCS(C)(=O)=O` [Jun9-58-1] (Ac-Leu-Leu-[Met(O2)]-aldehyde): 490 nM; for `CSCC[C@H](NC(=O)[C@H](CC(C)C)NC(=O)[C@H](Cc1ccccc1)NC(C)=O)C(=O)C(=O)NC1CC1` [Jun9-24-3]: 460 nM.
